Assay type in all cases: in vivo
Test [1] relates to sedge, umbrella (small-flower umbrella sedge, Cyperus difformis). In words: Test B flooded paddy test. The following applies: Cyperus difformis, 312 h, Flood, scale of 0 to 100, 0 is no effect, 100 is complete control, 13 to 15 d, read-out: Plant response rating, Sedge, Umbrella; for pest or weed control at 125 g/ha: 125 g ai/ha. In outline:
(§1)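 Plants at the 2-leaf stage were flooded to 3 cm and treated by applying compound directly to the paddy water, with depth held constant throughout. After 13–15 d in a greenhouse, injury was rated visually against controls on a 0 (no effect) to 100 (complete control) scale.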

The subject of test [2] is barnyardgrass (Echinochloa crus-galli). In words: Test B flooded paddy test. The conditions noted are these: Echinochloa crus-galli, 312 h, Flood, scale of 0 to 100, 0 is no effect, 100 is complete control, 13 to 15 d, read-out: Plant response rating, Barnyardgrass; for pest or weed control at 125 g/ha: 125 g ai/ha. In outline: as §1
For test [3], the system named is rice (Oryza sativa). In words: Test B flooded paddy test. The following applies: Oryza sativa, 312 h, Flood, scale of 0 to 100, 0 is no effect, 100 is complete control, 13 to 15 d, read-out: Plant response rating, Rice; for plant injury at 125 g/ha: 125 g ai/ha. In outline: as §1
The test system of test [4] is ducksalad (Heteranthera limosa). In words: Test B flooded paddy test. The following applies: Heteranthera limosa, 312 h, Flood, scale of 0 to 100, 0 is no effect, 100 is complete control, 13 to 15 d, read-out: Plant response rating, Ducksalad; for pest or weed control at 125 g/ha: 125 g ai/ha. In outline:
as §1

Test [5] concerns corn (Zea mays). In words: Test A pre-/postemergence greenhouse herbicide test. The conditions noted are these: Zea mays, 240 h, 0 to 100 scale (0 no effect, 100 complete control), approx. 10 d; for Corn plant response rating (crop injury, 0 = no effect, 100 = complete kill) at 125 g/ha: 125 g ai/ha; for Corn plant response rating (crop injury, 0 = no effect, 100 = complete kill) at 500 g/ha: 500 g ai/ha. In outline: (§2)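 Greenhouse pre- and postemergence treatment in loam/sand soil, test chemicals in non-phytotoxic solvent with surfactant; postemergence plants 2–10 cm, one- to two-leaf stage. Visual injury rated after approximately 10 d versus untreated controls, 0 (no effect) to 100 (complete control).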

In test [6] the test system is foxtail, giant (giant foxtail, Setaria faberii). The description is as above. The following applies: Setaria faberi, 240 h, 0 to 100 scale (0 no effect, 100 complete control), approx. 10 d, read-out: Plant response rating, Foxtail, Giant; for pest or weed control at 125 g/ha: 125 g ai/ha; for pest or weed control at 500 g/ha: 500 g ai/ha. In outline:
as §2

Test [7] has as its system barnyardgrass (Echinochloa crus-galli). The test is described as above. The following applies: Echinochloa crus-galli, 240 h, 0 to 100 scale (0 no effect, 100 complete control), approx. 10 d, read-out: Plant response rating, Barnyardgrass; for pest or weed control at 125 g/ha: 125 g ai/ha; for pest or weed control at 500 g/ha: 500 g ai/ha. In outline: as §2
The test system of test [8] is velvetleaf (Abutilon theophrasti). Described as above. The conditions noted are these: Abutilon theophrasti, 240 h, 0 to 100 scale (0 no effect, 100 complete control), approx. 10 d, read-out: Plant response rating, Velvetleaf; for pest or weed control at 125 g/ha: 125 g ai/ha; for pest or weed control at 500 g/ha: 500 g ai/ha. In outline:
as §2

Test [9] deals with chickweed (common chickweed, Stellaria media). Nature of the test: Test C postemergence greenhouse herbicide test. An excerpt: At the same time, plants selected from these crop and weed species and also barley (winter barley, Hordeum vulgare), canarygrass (Phalaris minor), windgrass (Apera spica-venti), deadnettle (henbit deadnettle, Lamium amplexicaule), and chickweed (common chickweed, Stellaria media) were planted in pots containing Redi-Earth® planting medium (Scotts Company, 14111 Scottslawn Road, Marysville, Ohio 43041) comprising spaghnum peat moss, vermiculite, wetting agent and starter nutrients and treated with postemergence applications of test chemicals formulated in the same manner. Plants ranged in height from 2 to 18 cm (1- to 4-leaf stage) for postemergence treatments. Treated plants and controls were maintained in a greenhouse for 13 to 15 d, after which time all species were compared to controls and visually evaluated. Plant response ratings, summarized in Table C, are based on a scale of 0 to 100 where 0 is no effect and 100 is complete control. A dash (-) response means no test result.

Test [10] has as its system morningglory (Ipomoea spp.). Nature of the test: Test A pre-/postemergence greenhouse herbicide test. The following applies: Ipomoea, 240 h, 0 to 100 scale (0 no effect, 100 complete control), approx. 10 d, read-out: Plant response rating, Morningglory; for pest or weed control at 125 g/ha: 125 g ai/ha; for pest or weed control at 500 g/ha: 500 g ai/ha. In outline: as §2

Each structure is given as a SMILES string. Read-outs that look alike come from different tables or passages of the source.

As for `Cc1cc(=O)n(-c2ccc(F)cc2)nc1Cc1ccnc(C(F)(F)F)c1` [Compound 1, 2-(4-fluorophenyl)-5-methyl-6-[[2-(trifluoromethyl)-4-pyridinyl]methyl]-3(2H)-pyridazinone], the pest or weed control at 125 g/ha came to 80% in test [1]; 10% in test [2]; 60% in test [4]; 90% in test [6] (post-emergence, Postemergence); 100% in test [6] (pre-emergence, Preemergence); 100% in test [7] (post-emergence, Postemergence). The pest or weed control at 125 g/ha in test [7] (pre-emergence, Preemergence) came to 100%; in test [8] (post-emergence, Postemergence), 40%; in test [8] (pre-emergence, Preemergence), 0%. In [3], the plant injury at 125 g/ha was 20%. Further, the Corn plant response rating (crop injury, 0 = no effect, 100 = complete kill) at 125 g/ha came to 90% in test [5] (post-emergence, Postemergence) and 0% in test [5] (pre-emergence, Preemergence). The Corn plant response rating (crop injury, 0 = no effect, 100 = complete kill) at 500 g/ha in test [5] (post-emergence, Postemergence) worked out at 90%; in test [5] (pre-emergence, Preemergence), 90%. Also, the pest or weed control at 500 g/ha turned out to be 100% in test [6] (post-emergence, Postemergence); 100% in test [6] (pre-emergence, Preemergence); 100% in test [7] (post-emergence, Postemergence); 100% in test [7] (pre-emergence, Preemergence); 100% in test [8] (post-emergence, Postemergence); 90% in [8] (pre-emergence, Preemergence). Besides, the Plant response rating in test [9] (31 g ai/ha) is reported as 40; in [9] (62 g ai/ha), 45; in test [9] (125 g ai/ha), 60; in [9] (250 g ai/ha) it was 90.
Take `Cc1cc(=O)n(-c2ccc(C(F)(F)F)cc2)nc1Cc1ccnc(C(F)(F)F)c1` [Compound 2, 5-methyl-2-[4-(trifluoromethyl)phenyl]-6-[[2-(trifluoromethyl)-4-pyridinyl]methyl]-3(2H)-pyridazinone]: the pest or weed control at 125 g/ha in test [1] worked out at 80%; in test [2], 0%; in test [4], 10%; in test [6] (post-emergence, Postemergence), 80%; in test [6] (pre-emergence, Preemergence) it was 100%; in test [7] (post-emergence, Postemergence), 80%. Moreover, the pest or weed control at 125 g/ha in test [7] (pre-emergence, Preemergence) was found to be 80%; in test [8] (post-emergence, Postemergence) it was 50%; in test [8] (pre-emergence, Preemergence), 20%. In addition, the plant injury at 125 g/ha in test [3] is 0%. Moreover, the Corn plant response rating (crop injury, 0 = no effect, 100 = complete kill) at 125 g/ha in test [5] (post-emergence, Postemergence) was 70%; in [5] (pre-emergence, Preemergence), 30%. Further, the Corn plant response rating (crop injury, 0 = no effect, 100 = complete kill) at 500 g/ha was found to be 90% in test [5] (post-emergence, Postemergence) and 50% in test [5] (pre-emergence, Preemergence). The pest or weed control at 500 g/ha in test [6] (post-emergence, Postemergence) is 100%; in test [6] (pre-emergence, Preemergence) it was 100%; in test [7] (post-emergence, Postemergence) it was 90%; in [7] (pre-emergence, Preemergence), 100%; in [8] (post-emergence, Postemergence) it was 100%; in test [8] (pre-emergence, Preemergence) it was 50%. The Plant response rating was found to be 60 in test [9] (31 g ai/ha), 70 in [9] (62 g ai/ha), 90 in test [9] (125 g ai/ha) and 90 in test [9] (250 g ai/ha).
In the case of `CCOc1cc(=O)n(-c2ccc(F)cc2)nc1C(O)c1ccnc(C(F)(F)F)c1` (stereo not drawn) [Compound 23, 5-ethoxy-2-(4-fluorophenyl)-6-[hydroxy[2-(trifluoromethyl)-4-pyridinyl]methyl]-3(2H)-pyridazinone], the pest or weed control at 250 g/ha is 70% in test [1] (250 g ai/ha), 10% in test [2] (250 g ai/ha) and 80% in test [4] (250 g ai/ha). Moreover, the plant injury at 250 g/ha in test [3] (250 g ai/ha) was found to be 10%. Also, the pest or weed control at 125 g/ha in test [10] (post-emergence, Postemergence) is 20%; in test [10] (pre-emergence, Preemergence), 100%; in [6] (post-emergence, Postemergence), 50%; in test [6] (pre-emergence, Preemergence), 100%; in [7] (post-emergence, Postemergence) it was 20%; in test [7] (pre-emergence, Preemergence), 20%. Also, the pest or weed control at 125 g/ha in [8] (post-emergence, Postemergence) was found to be 20%; in test [8] (pre-emergence, Preemergence), 80%. Besides, the pest or weed control at 500 g/ha in [10] (post-emergence, Postemergence) was 60%; in test [10] (pre-emergence, Preemergence), 100%; in test [6] (post-emergence, Postemergence) it was 90%; in test [6] (pre-emergence, Preemergence) it was 100%; in [7] (post-emergence, Postemergence) it was 100%; in test [7] (pre-emergence, Preemergence), 100%. Besides, the pest or weed control at 500 g/ha came to 70% in test [8] (post-emergence, Postemergence) and 100% in test [8] (pre-emergence, Preemergence). The Corn plant response rating (crop injury, 0 = no effect, 100 = complete kill) at 125 g/ha in test [5] (post-emergence, Postemergence) amounted to 50%; in test [5] (pre-emergence, Preemergence), 0%. The Corn plant response rating (crop injury, 0 = no effect, 100 = complete kill) at 500 g/ha stood at 90% in test [5] (post-emergence, Postemergence) and 20% in [5] (pre-emergence, Preemergence).

Source of the values: patent US10202361B2, “Pyridazinones as herbicides” (E I DU PONT DE NEMOURS AND COMPANY, priority 2014, dated 2019).
